Source: US5986131A, “RXR selective ligands” (Hoffmann-La Roche Inc., priority 1997, dated 1999)

What was measured:
human sebaceous cells = assay: Antiproliferative activity on human sebocytes in vitro; type: cell-based; settings: Homo sapiens; for IC50: 240 h, first passage cells, 10 days of exposure, read-out: Inhibition of human sebaceous cell proliferation in vitro IC50
Procedure: Sebaceous cells were isolated from adult human sebaceous glands by a combination of enzymatic and mechanical methods (Doran et al., 1991). The cells were cultured in Iscove's medium containing 10% fetal calf serum and 4 μg/ml dexamethasone on a layer of growth-arrested 3T3 mouse fibroblasts. Cells were plated in medium without the test compound and then given test compound in fresh medium 24-48 hours after the initial plating. The cultures were given fresh medium, containing the test compound, every 48 hours. On the day of harvesting, the cultures were rinsed with 0.03% EDTA in PBS, to remove only the 3T3 fibroblasts. followed by incubation in 0.05% trypsin/0.03% EDTA. The cells were suspended, mixed vigorously to prepare a single cell suspension and counted in a hemocytometer.
Stock solutions of compounds were made up as 10^-2 M solutions in 100% DMSO and stored at -20° C. in the dark. Compounds in solution were brought to room temperature and used by diluting directly into complete medium to the appropriate concentration.
The compounds of Example 12, Example 2, and Example 4 were tested for their effects on inhibiting the proliferation of first passage human sebaceous cells in vitro after 10 days of exposure to drug.

[1] = system: nuclear retinoic acid receptors ("RAR"); settings: cited from earlier work
Rhino mouse utricles = assay: Rhino mouse utricle reduction activity; type: in vivo, Rhino mice; settings: topical; for Utricle Size: 3 weeks; for Utricle size % Change from Control: ns = not statistically significant, others p<0.05
Procedure: Compounds were dissolved in 100% acetone and stored at 4° C. for the duration of the experiment under nitrogen. […] One day after the last dose, the mice were sacrificed by CO2 inhalation. […] The epidermis was then separated from the dermis.
The samples were kept in each of the above solutions for 2 hours. The skin samples were removed from the xylene and mounted on glass microscope slides. Image analysis, using the Ultimage image analysis software, was used to determine the mean diameter and area of utricles. Approximately 5 fields per sample were examined, for an average of 150 utricles per mouse measured.

[2] = system: retinoic acid X receptors ("RXR"); settings: cited from earlier work
[3] = system: Hamster Ear Sebaceous Gland; assay: Effect on size of sebaceous glands of Golden Syrian hamsters; type: in vivo; parameters: Sebaceous Gland Size: unit not given here; settings: 4 weeks topical dosing
Procedure: Charles River Golden Syrian male hamsters were given the desired dose in acetone. The compounds were stored at 4° C. protected from light. Fresh solutions were made up weekly.
Hamsters were dosed daily for five days, rested for two days, and dosed again for five days until 20 doses were given. The volume of solution was 50 microliters per ear.
Hamsters were sacrificed by CO2 inhalation, and the ears removed for histological evaluation. One ear was removed and the ventral surface separated from the rest of the ear. A 2 mm punch was removed 5 mm from the tip of the ear and stained in 0.1 % Sudan Black B dissolved in 100% propylene glycol overnight. After destaining, the size of sebaceous glands was quantified with a Donsanto Image Analysis System.
Data are given as the average area of 80-120 sebaceous glands per dose, as percent of the control (solvent-treated) sections.

mouse B cell = assay: Inhibition of LPS-induced mouse B cell proliferation (3H-thymidine incorporation); type: cell-based
Procedure: Single cell suspensions of mouse spleen were set up in culture in flatbottomed 96 well Microtiter trays, 0.2 ml/well of a 2×10^5 /ml cell suspension in IMDM supplemented with 10% foetal calf serum, HEPES, antibiotics and 50 μM 2-mercaptoethanol. The specific B cell mitogen E. coli lipopolysaccharide (DIFCO) (LPS) was added at 50μg/ml. Cultures were incubated at 37° C. in a humidified atmosphere and 5% CO2.
The retinoids to be tested were first titrated in triplicate from 10 nM to 10 μM and left throughout the whole culture period. […] Cyclosporin A (Sandoz AG) was used as a reference compound (from 1 nM to 1 μM).
The cultures were then harvested on glass fiber filters and the radioactivity imcorporated into DNA measured in a β-liquid scintillation counter (Betaplate, Wallac Oy, Turku, Finland).
The results are expressed as % of the response of untreated cultures. […] Retinoids were added to the cultures at the beginning of the culture period.

RXRα = target: T1, RXRα (Homo sapiens, UniProt P19793); assay: RXRα activation (transactivation); type: cell-based; settings: Table 1; read-out: Activation ED50, RXRα
T1 sequence (P19793 1-462): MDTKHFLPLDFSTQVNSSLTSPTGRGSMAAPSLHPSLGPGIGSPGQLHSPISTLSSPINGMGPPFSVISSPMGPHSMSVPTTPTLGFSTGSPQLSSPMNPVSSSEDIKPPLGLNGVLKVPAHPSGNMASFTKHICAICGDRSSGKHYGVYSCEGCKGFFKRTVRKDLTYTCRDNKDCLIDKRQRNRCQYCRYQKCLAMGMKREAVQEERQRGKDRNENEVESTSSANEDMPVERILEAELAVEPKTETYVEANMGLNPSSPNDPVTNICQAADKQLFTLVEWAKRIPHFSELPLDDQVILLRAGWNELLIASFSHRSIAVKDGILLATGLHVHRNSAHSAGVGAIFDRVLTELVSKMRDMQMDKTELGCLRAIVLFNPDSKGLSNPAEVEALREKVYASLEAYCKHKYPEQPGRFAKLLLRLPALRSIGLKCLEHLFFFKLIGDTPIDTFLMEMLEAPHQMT
Excerpt: Methods essentially as described in those publications were used to determine the binding and transactivation properties of retinoids reported in the Examples herein.

HL-60 cells = assay: HL-60 differentiation (NBT reduction); type: cell-based, human; settings: in combination with RARα retinoid
Procedure: Under the influence of retinoids, HL-60 cells (a human myeloid leukemia cell line) differentiate into granulocytes. This differentiation of HL-60 cells into granulocytes is mediated by RARα, and so provides the basis for the use of retinoids to treat leukemia.
Retinoid-induced differentiation of HL-60 cells was assayed by measuring their oxidative burst potential via the reduction of NBT (Nitroblueterstazolium) [Pick et al., J. Reticuloendothelial Soc., 30:581-593 (1981)].
HL-60 cells were maintained in RPMI 1640 medium supplemented with 10% FCS, 2mM L-glutamine, ImM sodium pyruvate, 1% non-essential amino acids, 50 U/ml penicillin and 50 μg/ml streptomycin (=RPMI/FCS).
30,000 cells/[…] of RPMI/FCS were seeded into flat-bottomed microtiter wells. 10 μl of retinoids diluted in complete medium were added at the same time to yield final concentrations betweeen 10^-11 and 10^-6 M (stock solutions of 10^-2 M in ethanol were kep at -20° C. and protected from light). After 3 days, the medium was removed with a multichannel pipette and replaced with 100 μl of NBT solution (1 mg/ml in PBS with 200 nM phorbol myristate acetate (PMA). Following an additional hour incubation at 37° C. the NBT solution was removed and 100 μl of 10% SDS in 0.01 N HCl was added. The amount of the reduced NBT was quantified photometrically at 540 nm using an automated plate reader. The mean of 3 wells was calculated. S.E.M. were between 5 and 10%.

Structure (SMILES)	IC50 (human sebaceous cells) [µM]	binding to RAR (in words) [1]	Utricle Size (Rhino mouse utricles; 0.1 μg/day) [μm^2 / utricle]	Utricle size % Change from Control (Rhino mouse utricles; 0.1 μg/day) [%]	Utricle Size (Rhino mouse utricles; 1 μg/day) [μm^2 / utricle]	Utricle size % Change from Control (Rhino mouse utricles; 1 μg/day) [%]	Utricle Size (Rhino mouse utricles; 10 μg/day) [μm^2 / utricle]	Utricle size % Change from Control (Rhino mouse utricles; 10 μg/day) [%]	Utricle Size (Rhino mouse utricles; 100 μg/day) [μm^2 / utricle]	Utricle size % Change from Control (Rhino mouse utricles; 100 μg/day) [%]	binding to RXR (in words) [2]	further results
CC1=C(/C=C/C(C)=C\C=C\C(C)=C\C(=O)O)C(C)(C)CCC1 [9-cis-retinoic acid, reference compound]	0.1	also acts as a ligand for the RAR group of receptors	8650 ± 427	-11	6926 ± 497	-29	3540 ± 354	-64	2644 ± 312	-73	binds to a group of receptors known as the retinoic acid X receptors	–
CC1=C(/C=C/C(C)=C/C=C/C(C)=C\C(=O)O)C(C)(C)CCC1 [13-cis-retinoic acid, reference compound]	0.1	bind to RARα	9187 ± 794	-6	6400 ± 424	-34	3793 ± 368	-61	3132 ± 305	-68	do not	Sebaceous Gland Size ([3]; 1 μg/day): 14029 ± 2977; Sebaceous gland size % Change from Control ([3]; 1 μg/day, ns = not statistically significant): -15%; Sebaceous Gland Size ([3]; 10 μg/day): 12965 ± 2029; Sebaceous gland size % Change from Control ([3]; 10 μg/day, ns = not statistically significant): -21%; Sebaceous Gland Size ([3]; 100 μg/day): 10459 ± 1302; Sebaceous gland size % Change from Control ([3]; 100 μg/day): -37%
CC1=C(/C=C/C(C)=C/C=C/C(C)=C/C(=O)O)C(C)(C)CCC1 [All-trans retinoic acid, all-trans retinoic acid, reference compound]	–	bind to RARα	–	–	–	–	–	–	–	–	do not	inhibition at 0.01 µM (mouse B cell; Mus musculus, B-cell, 96 h, day 4, 10 nM, read-out: inhibition of B cell response): ~30%; IC50 (mouse B cell; alone, FIG. 4, day 3): 0.001 µM; effect on B cell response (mouse B cell; day 4, 1 nM): not inhibitory any longer and actually induces a minor enhancement of the response
CC1(C)CCC(C)(C)c2cc(C(=O)Nc3ccc(C(=O)O)cc3)ccc21 [Compound A, reference compound]	–	–	–	–	–	–	–	–	–	–	–	EC50 (RXRα): > 10 µM; potentiation of HL-60 differentiation (in words) (HL-60 cells): somewhat more pronounced
CC1=C(/C=C/C(C)=C(Br)\C=C\C(C)=C\C(=O)O)C(C)(C)CCC1 [Example 2, (All-E)-6-Bromo-3,7-dimethyl-9-(2,6,6-trimethyl-1-cyclohexen-1-yl)-2,4,6,8-nonatetraenoic acid]	–	–	9535 ± 890	-2	9616 ± 1134	-1	9049 ± 891	-7	5437 ± 615	-44	–	inhibition at 1 µM (human sebaceous cells; 1000 nM, first experiment, read-out: inhibition of sebaceous cell growth): 70%
CC1=C(/C=C/C(C)=C(Cl)\C=C\C(C)=C\C(=O)O)C(C)(C)CCC1 [Example 12, (All-E-)-6-chloro-3,7-dimethyl-9-(2,6,6-trimethyl-1-cyclohexen-1-yl)-2,4,6,8-nonatetraenoic acid]	0.1	–	9104 ± 829	-7	9156 ± 938	-6	7634 ± 485	-22	3596 ± 300	-63	–	–
